Values of other authors, collected in patent US20080226715A1, “THERAPEUTIC COMPOSITIONS AND METHODS” (priority 2007, published 2008).

Legend:
[1] = after oral dosing; normal subjects
[2] = in vivo

| SMILES | time of peak plasma concentrations [1] | bioavailability [2] [%] | pharmacokinetics half-life [2] [h] |
| --- | --- | --- | --- |
| CC(=O)Nc1ccc(O)cc1 [acetaminophen] | about 1 hour | – | – |
| CC(=O)Oc1ccccc1C(=O)O [aspirin] | about 1 hour | – | – |
| O=C(O)CCc1nc(-c2ccccc2)c(-c2ccccc2)o1 [Oxaprozin] | – | 95 | 42 to 50 |
